In patent US20240150368A1, “ULK INHIBITORS AND METHODS OF USE THEREOF” (Deciphera Pharmaceuticals, LLC, priority 2022, published 2024):

Experiments:
[1] = tested on: ULK kinase substrate ATG13 (pS318-ATG13) in A549 (KRAS mutant) cells; assay: pATG13 levels of mutant KRas A549 cells after treatment with ULK inhibitors in combination with trametinib (ELISA); assay type: cell-based, human
Experimental: Cellular Inhibition of ULK Kinase Substrate ATG13 Protein pATG13 Levels of Mutant KRas A549 Cells after Treatment with ULK Inhibitors in Combination with Trametinib
(§1) A549 (KRAS mutant) human lung cancer cells (6,000 cells/well) were added to a 384-well tissue-culture treated plate in 50 μL of pre-warmed DMEM medium supplemented with 10% characterized fetal bovine serum (Invitrogen, Carlsbad, CA), 100 units/mL penicillin G, and 100 μg/mL streptomycin and allowed to grow overnight at 37° C., 5% CO2, and 95% humidity. The following day, 10 μL of media containing trametinib or DMSO as a control was added to wells. The final concentration of trametinib in wells was 250 nM. A dose response of a test compound (0.6 μL per well) was added. DMSO (0.6 μL) was added to control wells. The plate was briefly shaken to mix wells and then incubated at 37° C. overnight. The next day, the media was aspirated and cells were washed with Dulbecco's Phosphate Buffered Saline (Gibco). Cells were lysed using MPER lysis buffer (Pierce, Rockford, IL) containing Halt Phosphatase and Protease Inhibitors (Pierce, Rockford, IL) and Phosphatase inhibitor cocktail 2 (Sigma, St. Louis, MO) at 4° C. for 10 min with shaking.
(§2) Cellular levels of phospho-Serine 318 ATG13 (pATG13) were measured via an ELISA method. Total ATG13 Antibody (Cell Signaling Cat #13273) was used to coat the wells. The plate was incubated at 4° C. overnight and washed with ELISA wash buffer (Biolegend Cat #421601). The wells were then blocked with assay diluent (Biolegend Cat #421203) for 1 h at rt. Plate wells were washed with ELISA wash buffer. Cell lysate was added to wells and incubated at rt for 2 h. Plate wells were washed with ELISA wash buffer. Biotinylated pS318-ATG13 antibody (Rockland Immunochemicals Cat #600-401-C49) was diluted in assay diluent and added to each well and incubated at rt for 1 h. Plate wells were washed with ELISA wash buffer. Streptavidin linked to horseradish peroxidase (Thermo Fisher Cat #21140) was diluted in assay diluent and added to each well and incubated at rt for 1 h. Plate wells were washed with ELISA wash buffer. High sensitivity TMB substrate (Biolegend Cat #421101) was added to each well and incubated at rt for 20 min. The reaction was stopped with 2N Sulfuric Acid. The plate was analyzed at on a plate reader measuring absorbance at 450 nm and 540 nm (background). Signal was calculated by first subtracting the background absorbance at 540 nm from the absorbance at 450 nm for each well. Next, the background corrected absorbance at 450 nm from blank wells was subtracted from test wells. Data was compared to control wells to determine % ATG13 phosphorylation. GraphPad Prism was used to calculate IC50 values.

ULK1 kinase = target: T1, ULK1 kinase (Homo sapiens, UniProt O75385, E37A/K38A); assay: Biochemical assay for ULK1 (coupled pyruvate kinase/lactate dehydrogenase assay); details: 1 mM ATP, 0.1 nM ULK1; read-out: ULK1 (inhibition of biochemical activity), IC50
T1 construct: (residues 1-283; ID NO: 1); purchased Beryllium
T1 sequence (O75385 1-283 E37A/K38A): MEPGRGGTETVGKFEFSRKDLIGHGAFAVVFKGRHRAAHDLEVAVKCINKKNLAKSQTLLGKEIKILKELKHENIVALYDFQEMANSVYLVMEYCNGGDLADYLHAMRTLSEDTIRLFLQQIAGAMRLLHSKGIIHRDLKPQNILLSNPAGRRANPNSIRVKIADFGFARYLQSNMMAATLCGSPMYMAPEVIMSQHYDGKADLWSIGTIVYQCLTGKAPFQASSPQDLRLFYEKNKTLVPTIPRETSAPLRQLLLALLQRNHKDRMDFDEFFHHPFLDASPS
Experimental: Biochemical Assay for ULK1 (SEQ. ID NO: 1)
Activity of ULK1 kinase was determined spectroscopically using a coupled pyruvate kinase/lactate dehydrogenase assay that continuously monitors the ATP hydrolysis-dependent oxidation of NADH (e.g., Schindler et al. Science (2000) 289: 1938-1942). Assays were conducted in 384-well plates (100 μL final volume) using 0.1 nM ULK1 (from Beryllium), 0.075 mM peptide substrate (YANWLAASIYLDGKKK), 1.5 units pyruvate kinase, 2.1 units lactate dehydrogenase, 1 mM phosphoenol pyruvate, 0.28 mM NADH and 1 mM ATP in assay buffer (100 mM Tris, pH 7.5, 15 mM MgCl2, 0.5 mM DTT, 0.004% (w/v) BSA, and 0.004% Triton X-100). Inhibition of ULK1 was measured by adding serial diluted test compound (final assay concentration of 1% DMSO). A decrease in absorption at 340 nm was monitored continuously for 6 h at 30° C. on a multi-mode microplate reader (BioTek). The reaction rate was calculated using the 2-3 h time frame. The reaction rate at each concentration of compound was converted to percent inhibition using controls (i.e., reaction with no test compound and reaction with a known inhibitor) and IC50 values were calculated using software routines in Prism (GraphPad software).

[2] = tested on: ULK kinase substrate ATG13 (pS318-ATG13) in MiaPaCa-2 cells; assay: pATG13 levels of mutant KRas MiaPaCa-2 cells after treatment with ULK inhibitors in combination with trametinib (ELISA); assay type: cell-based, human
Experimental: pATG13 Levels of Mutant KRas MiaPaCa-2 Cells after Treatment with ULK Inhibitors in Combination with Trametinib
as §1, with “MiaPaCa-2” for “A549 (KRAS mutant)”, “pancreatic” for “lung”, “(10000” for “(6,000”, “G,” for “G, and”, “streptomycin, and 2.5% Horse Serum” for “streptomycin”, “minutes” for “min”
as §2, with “2.0N sulfuric acid.” for “2N Sulfuric Acid.”

ULK2 kinase = target: T2, ULK2 kinase (Homo sapiens, UniProt Q8IYT8); assay: Biochemical assay for ULK2 (coupled pyruvate kinase/lactate dehydrogenase assay); details: 1 mM ATP, 1 nM ULK2; read-out: ULK2 (inhibition of biochemical activity), IC50
T2 construct: (residues 1-306 with N-terminal GST and His tag; ID NO: 2); purchased Signal Chem U02-11G
T2 sequence (Q8IYT8 with tags, fused parts or gaps): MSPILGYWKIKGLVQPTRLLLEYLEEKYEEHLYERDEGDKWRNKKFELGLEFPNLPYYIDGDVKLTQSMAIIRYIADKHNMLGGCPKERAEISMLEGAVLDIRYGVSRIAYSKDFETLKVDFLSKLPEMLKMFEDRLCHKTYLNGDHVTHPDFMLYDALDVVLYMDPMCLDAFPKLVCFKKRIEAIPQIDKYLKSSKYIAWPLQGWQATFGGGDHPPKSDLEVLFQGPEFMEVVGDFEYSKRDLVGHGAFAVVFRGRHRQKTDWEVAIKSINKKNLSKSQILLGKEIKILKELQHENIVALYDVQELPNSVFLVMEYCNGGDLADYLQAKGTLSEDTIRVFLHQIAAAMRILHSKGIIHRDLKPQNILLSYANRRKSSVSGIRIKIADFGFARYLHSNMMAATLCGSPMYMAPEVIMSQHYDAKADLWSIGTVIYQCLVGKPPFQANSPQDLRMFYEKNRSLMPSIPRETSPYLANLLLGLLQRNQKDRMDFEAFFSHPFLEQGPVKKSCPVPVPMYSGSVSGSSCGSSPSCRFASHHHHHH
Experimental: Biochemical Assay for ULK2 (SEQ. ID NO: 2)
Activity of ULK2 kinase was determined spectroscopically using a coupled pyruvate kinase/lactate dehydrogenase assay that continuously monitors the ATP hydrolysis-dependent oxidation of NADH (e.g., Schindler et al. Science (2000) 289: 1938-1942). Assays were conducted in 384-well plates (100 μL final volume) using 1 nM ULK2 (Signal Chem U02-11G), 200 μM ULKtide, 1.5 units pyruvate kinase, 2.1 units lactate dehydrogenase, 1 mM phosphoenol pyruvate, 0.28 mM NADH and 1 mM ATP in assay buffer (100 mM Tris, pH 7.5, 15 mM MgCl2, 0.5 mM DTT, 0.1% octyl-glucoside, 0.002% (w/v) BSA, and 0.002% Triton X-100). Inhibition of ULK2 was measured by adding serial diluted test compound (final assay concentration of 1% DMSO). A decrease in absorption at 340 nm was monitored continuously for 6 h at 30° C. on a multi-mode microplate reader (BioTek). The reaction rate was calculated using the 2-3 h time frame. The reaction rate at each concentration of compound was converted to percent inhibition using controls (i.e., reaction with no test compound and reaction with a known inhibitor) and IC50 values were calculated by fitting a four-parameter sigmoidal curve to the data using Prism (GraphPad software).

| Compound | IC50 [1] [nM] | IC50 (ULK1 kinase) [nM] | IC50 [2] [nM] | IC50 (ULK2 kinase) [nM] |
| --- | --- | --- | --- | --- |
| CC/C(Nc1cnn(C2CCN(C(C)C)CC2)c1)=C1/C(=O)Nc2ccc(C(=O)N(C)C)cc21 [Example 2, (Z)-3-(1-((1-(1-isopropylpiperidin-4-yl)-1H-pyrazol-4-yl)amino)propylidene)-N,N-dimethyl-2-oxoindoline-5-carboxamide] | > 600 | 100 to 500 | 100 to 300 | – |
| CC/C(Nc1cnn(C(C)C)c1)=C1/C(=O)Nc2ccc(C(=O)C3CC3)cc21 [Example 6, (Z)-5-(cyclopropanecarbonyl)-3-(1-((1-isopropyl-1H-pyrazol-4-yl)amino)propylidene)indolin-2-one] | 100 to 300 | 10 to 100 | – | 100 to 500 |
| CC/C(Nc1ccc(N2CCN(C)CC2)cc1)=C1/C(=O)Nc2ccc(C(=O)NCCOC)cc21 [Example 11] | 300 to 600 | 10 to 100 | ≤ 100 | – |
| CC/C(Nc1cnn(C2CCN(CC3CCC3)CC2)c1)=C1/C(=O)Nc2ccc(C(=O)NCC(C)C)cc21 [Example 40] | ≤ 100 | ≤ 10 | ≤ 100 | – |
| CC/C(Nc1cnn(C2CCN(CCOC)CC2)c1)=C1/C(=O)Nc2ccc(C(=O)NCC(C)C)cc21 [Example 41] | ≤ 100 | ≤ 10 | ≤ 100 | – |
| CC/C(Nc1ccc(N2CCN(C)CC2)c(F)c1)=C1/C(=O)Nc2ccc(C(=O)NCC(F)(F)F)cc21 [Example 72] | – | ≤ 10 | ≤ 100 | ≤ 10 |
| CC/C(Nc1ccc(N2CCN(C)CC2)cc1F)=C1/C(=O)Nc2ccc(C(=O)NCC(F)(F)F)cc21 [Example 73] | – | 100 to 500 | 100 to 300 | 100 to 500 |
| CC/C(Nc1cnc(N2CCN(C)CC2)nc1)=C1/C(=O)Nc2ccc(C(=O)NCC(F)(F)F)cc21 [Example 76] | – | 100 to 500 | 100 to 300 | > 500 |
| CC/C(Nc1cnn(C2CCN(C(C)C)CC2)c1)=C1/C(=O)Nc2ccc(C(=O)NCC3(C)CCCO3)cc21 (stereo not drawn) [Example 174] | ≤ 100 | ≤ 10 | – | 10 to 100 |

The remaining lines, values ahead:

| IC50 [1] [nM] | IC50 (ULK1 kinase) [nM] | IC50 [2] [nM] | IC50 (ULK2 kinase) [nM] | Compound |
| --- | --- | --- | --- | --- |
| ≤ 100 | ≤ 10 | ≤ 100 | – | CCCNC(=O)c1ccc2c(c1)/C(=C(\CC)Nc1cnn(C3CCN(C(C)C)CC3)c1)C(=O)N2 [Example 15] |
| 300 to 600 | ≤ 10 | ≤ 100 | – | C/C(Nc1cnn(C2CCN(C(C)C)CC2)c1)=C1/C(=O)Nc2ccc(C(=O)NCC(F)(F)F)cc21 [Example 24] |
| ≤ 100 | ≤ 10 | ≤ 100 | – | CC/C(Nc1cnn(C2CCN(C3CCC3)CC2)c1)=C1/C(=O)Nc2ccc(C(=O)NCC(C)C)cc21 [Example 32] |
| ≤ 100 | ≤ 10 | ≤ 100 | – | CC/C(Nc1cnn(C2CCN(C3CCCC3)CC2)c1)=C1/C(=O)Nc2ccc(C(=O)NCC(C)C)cc21 [Example 33] |
| ≤ 100 | ≤ 10 | ≤ 100 | – | CC/C(Nc1cnn(C2CCN(C3CCCCC3)CC2)c1)=C1/C(=O)Nc2ccc(C(=O)NCC(C)C)cc21 [Example 34] |
| 300 to 600 | ≤ 10 | ≤ 100 | – | CC/C(Nc1cnn(C2CCN(C3COC3)CC2)c1)=C1/C(=O)Nc2ccc(C(=O)NCC(C)C)cc21 [Example 35] |
| 100 to 300 | ≤ 10 | ≤ 100 | – | CC/C(Nc1cnn(C2CCN(C3CCOC3)CC2)c1)=C1/C(=O)Nc2ccc(C(=O)NCC(C)C)cc21 (stereo not drawn) [Example 36] |
| ≤ 100 | ≤ 10 | ≤ 100 | – | CC/C(Nc1cnn(C2CCN(CC(C)C)CC2)c1)=C1/C(=O)Nc2ccc(C(=O)NCC(C)C)cc21 [Example 38] |
| ≤ 100 | ≤ 10 | ≤ 100 | – | CC/C(Nc1cnn(C2CCN(CC3CC3)CC2)c1)=C1/C(=O)Nc2ccc(C(=O)NCC(C)C)cc21 [Example 39] |
